Broadly, the IC50 is the concentration that inhibits the measured activity by half.

The target in this assay is P2X7 receptor (Homo sapiens (Human), UniProt Q99572). Kind of assay: P2X7 FLIPR assay: antagonism of BzATP response in 293 HEK cells stably expressing P2X7 receptor. Conditions: FLIPR fluorescence (Fluo-4), agonist BzATP, 293 HEK cells stably transfected with P2X7 receptor. It counts as cell-based. In a few lines: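 Antagonist IC50 derived from FLIPR Tetra Fluo-4 calcium signal evoked by BzATP. Compound pre-incubation was 30 min at room temperature on P2X7-expressing HEK293 cells, seeded 24 h before in low-serum medium and dye-loaded 30 min at 37 °C then 30 min at RT.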
Sequence of P2X7 receptor (Q99572 whole entry): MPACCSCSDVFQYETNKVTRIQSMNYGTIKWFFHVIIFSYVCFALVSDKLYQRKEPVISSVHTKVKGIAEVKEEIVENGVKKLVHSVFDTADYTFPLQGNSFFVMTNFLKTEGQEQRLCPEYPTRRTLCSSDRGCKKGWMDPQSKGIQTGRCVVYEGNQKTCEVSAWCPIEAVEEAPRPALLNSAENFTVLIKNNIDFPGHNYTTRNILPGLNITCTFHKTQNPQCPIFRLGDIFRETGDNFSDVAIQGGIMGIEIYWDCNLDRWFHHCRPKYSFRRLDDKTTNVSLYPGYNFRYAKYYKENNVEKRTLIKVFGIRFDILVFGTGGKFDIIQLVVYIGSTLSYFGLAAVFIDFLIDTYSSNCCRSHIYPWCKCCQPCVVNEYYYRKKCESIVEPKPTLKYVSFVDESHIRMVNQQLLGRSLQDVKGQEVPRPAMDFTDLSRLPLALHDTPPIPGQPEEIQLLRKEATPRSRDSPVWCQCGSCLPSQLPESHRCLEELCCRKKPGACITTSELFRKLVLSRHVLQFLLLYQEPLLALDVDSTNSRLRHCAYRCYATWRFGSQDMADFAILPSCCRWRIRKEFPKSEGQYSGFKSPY
In turn, `Cn1cc(C(CNC(=O)c2c(Cl)cccc2Cl)N2CCC(F)(F)CC2)cn1` (single isomer, unassigned; (+)) [(+)2,6-dichloro-N-[2-(4,4-difluoro-1-piperidyl)-2-(1-methylp] [(+)2,6-dichloro-N-(2-(4,4-difluoropiperidin-1-yl)-2-(1-methyl-1H-pyrazol-4-yl)ethyl)benzamide] had an IC50 of 56 nM.

As for `O=C(NCC(c1ccc(C(F)(F)F)nc1)N1CCC(F)(F)CC1)c1cccc(F)c1Cl` (single isomer, unassigned; (+)) [(+)2-chloro-N-[2-(4,4-difluoro-1-piperidyl)-2-[6-(trifluorom] [(+)2-chloro-N-(2-(4,4-difluoropiperidin-1-yl)-2-(2-(trifluoromethyl)pyridin-5-yl)ethyl)-3-fluorobenzamide], the IC50 is 1.7 nM.

Regarding `O=C(NCC(c1cnc(C2CC2)nc1)N1CCC(F)(F)CC1)c1ccccc1Cl` (single isomer, unassigned; (-)) [(−)2-chloro-N-[2-(2-cyclopropylpyrimidin-5-yl)-2-(4,4-difluo] [(−)2-chloro-N-(2-(2-cyclopropylpyrimidin-5-yl)-2-(4,4-difluoropiperidin-1-yl)ethyl)benzamide], the IC50 was 7.6 nM.

In turn, `Cc1ncc(C(CNC(=O)c2cccc(F)c2Cl)N2CCOCC2)cn1` (stereo not shown) [2-chloro-3-fluoro-N-(2-(2-methylpyrimidin-5-yl)-2-morpholinoethyl)benzamide] displayed a half-inhibitory concentration (IC50) of 1200 nM.

`CCc1ncc(C(CNC(=O)c2cccc(Cl)c2Cl)N2CCC(F)(F)CC2)cn1` (single isomer, unassigned; (+)) [(+)2,3-dichloro-N-[2-(4,4-difluoro-1-piperidyl)-2-(2-ethylpy] [(+2,3-dichloro-N-(2-(4,4-difluoropiperidin-1-yl)-2-(2-ethylpyrimidin-5-yl)ethyl)benzamide] yielded an IC50 of 2.6 nM.

`Cc1ncc(C(CNC(=O)c2cccc(Cl)c2Cl)N2CCCOCC2)cn1` (stereo not shown) [2,3-dichloro-N-(2-(2-methylpyrimidin-5-yl)-2-(1,4-oxazepan-4-yl)ethyl)benzamide] returned an IC50 of 29 nM.

The compound `Cc1ccccc1C(=O)NC[C@H](c1ccc(Cl)cc1)N1CCOCC1` [N-[(S)-2-(4-Chloro-phenyl)-2-morpholin-4-yl-ethyl]-2-methyl-benzamide] gave an IC50 of 9.3 nM.

`Cn1cc(C(CNC(=O)c2ccccc2Cl)N2CCC(F)(F)CC2)cn1` (single isomer, unassigned; (+)) [(+)2-chloro-N-[2-(4,4-difluoro-1-piperidyl)-2-(1-methylpyraz] [(+)2-chloro-N-(2-(4,4-difluoropiperidin-1-yl)-2-(1-methyl-1H-pyrazol-4-yl)ethyl)benzamide] registered a concentration for half-maximal inhibition (IC50) of 180 nM.

Compound `O=C(NCC(c1cnc(C(F)(F)F)nc1)N1CCC(F)(F)CC1)c1c(Cl)ccc(F)c1Cl` (single isomer, unassigned; (+)) [(+)2,6-dichloro-N-[2-(4,4-difluoro-1-piperidyl)-2-[2-(triflu] [(+)2,6-dichloro-5-fluoro-N-(2-(4,4-difluoropiperidin-1-yl)-2-(2-(trifluoromethyl)pyrimidin-5-yl)ethyl)benzamide] came in with an IC50 of 7.1 nM. Against the preceding compound, the IC50 is about 25-fold lower.

In turn, `Cc1ncc(C(CNC(=O)c2cccc(F)c2Cl)N2CCCOCC2)cn1` (stereo not shown) [2-chloro-3-fluoro-N-(2-(2-methylpyrimidin-5-yl)-2-(1,4-oxazepan-4-yl)ethyl)benzamide] returned an IC50 of 330 nM.

The compound `Cc1ncc(C(CNC(=O)c2ccccc2Cl)N2CCC(F)(F)CC2)cn1` (single isomer, unassigned; (-)) [(−)2-chloro-N-[2-(4,4-difluoro-1-piperidyl)-2-(2-methylpyrim] [(−)2-chloro-N-[2-(4,4-difluoro-1-piperidyl)-2-(2-methylpyrimidin-5-yl)ethyl]benzamide] returned a 50% inhibitory concentration (IC50) of 24 nM.

The compound `O=C(NCC(c1cnc(C(F)F)nc1)N1CCOCC1)c1ccccc1Cl` (single isomer, unassigned; (-)) [(−)2-chloro-N-[2-[2-(difluoromethyl)pyrimidin-5-yl]-2-morpho] [(−)2-chloro-N-(2-(2-(difluoromethyl)pyrimidin-5-yl)-2-morpholinoethyl)benzamide] registered a half-maximal inhibitory concentration (IC50) of 15 nM.

Turning to `Cc1ncc(C(CNC(=O)c2cccc(Cl)c2Cl)N2CCCC(F)(F)C2)cn1` (single isomer, unassigned; (+)) [(+2,3-dichloro-N-(2-(3,3-difluoropiperidin-1-yl)-2-(2-methylpyrimidin-5-yl)ethyl)benzamide], the half-inhibitory concentration (IC50) was 14 nM.

`O=C(NCC(c1ccc(C(F)(F)F)nc1)N1CCOCC1)c1c(F)cccc1F` (single isomer, unassigned; (-)) [(−)2,6-difluoro-N-[2-morpholino-2-[6-(trifluoromethyl)-3-pyr] [(−)2,6-difluoro-N-(2-morpholino-2-(6-(trifluoromethyl)pyridin-3-yl)ethyl)benzamide] registered a half-maximal inhibitory concentration (IC50) of 480 nM.

Turning to `O=C(NCC(c1ccc(F)nc1)N1CCC(F)(F)CC1)c1cccc(Cl)c1Cl` (stereo not shown) [2,3-Dichloro-N-[2-(4,4-difluoro-1-piperidyl)-2-(6-fluoro-3-pyridyl)ethyl]benzamide], the 50% inhibitory concentration (IC50) came out at 0.89 nM.

In the case of `O=C(NCC(c1cnc(C(F)(F)F)nc1)N1CCC(F)(F)CC1)c1c(Cl)cccc1Cl` (single isomer, unassigned; (+)) [(+)2,6-dichloro-N-[2-(4,4-difluoro-1-piperidyl)-2-[2-(triflu] [(+)2,6-dichloro-N-(2-(4,4-difluoropiperidin-1-yl)-2-(2-(trifluoromethyl)pyrimidin-5-yl)ethyl)benzamide], the IC50 was determined as 4.7 nM.

Compound `O=C(NCC(c1cnc(C(F)(F)F)nc1)N1CCC(F)(F)CC1)c1c(F)cccc1Cl` (single isomer, unassigned; (+)) [(+)2-chloro-N-[2-(4,4-difluoro-1-piperidyl)-2-[2-(trifluorom] [(+)2-chloro-6-fluoro-N-(2-(4,4-difluoropiperidin-1-yl)-2-(2-(trifluoromethyl)pyrimidin-5-yl)ethyl)benzamide] gave a concentration for half-maximal inhibition (IC50) of 8.3 nM.

`Cc1ncc(C(CNC(=O)c2ccccc2Cl)N2CCC(F)(F)CC2)cn1` (single isomer, unassigned; (+)) [(+)2-chloro-N-[2-(4,4-difluoro-1-piperidyl)-2-(2-methylpyrim] [(+)2-chloro-N-[2-(4,4-difluoro-1-piperidyl)-2-(2-methylpyrimidin-5-yl)ethyl]benzamide] returned an IC50 of 13 nM.

Compound `CCc1ncc(C(CNC(=O)c2c(Cl)cccc2Cl)N2CCC(F)(F)CC2)cn1` (single isomer, unassigned; (-)) [(−)2,6-dichloro-N-[2-(4,4-difluoro-1-piperidyl)-2-(2-ethylpy] [(−)2,6-dichloro-N-(2-(4,4-difluoropiperidin-1-yl)-2-(2-ethylpyrimidin-5-yl)ethyl)benzamide] yielded an IC50 of 27 nM.

The compound `O=C(NCC(c1ccc(Cl)nc1)N1CCOCC1)c1cccc(Cl)c1Cl` (stereo not shown) [2,3-Dichloro-N-[2-(6-chloro-3-pyridyl)-2-morpholino-ethyl]benzamide] registered a half-inhibitory concentration (IC50) of 3.9 nM.

On to `O=C(NCC(c1cnc(C2CC2)nc1)N1CCC(F)(F)CC1)c1c(F)cccc1Cl` (single isomer, unassigned; (-)) [(−)2-chloro-N-[2-(2-cyclopropylpyrimidin-5-yl)-2-(4,4-difluo] [(−)2-chloro-6-fluoro-N-(2-(2-cyclopropylpyrimidin-5-yl)-2-(4,4-difluoropiperidin-1-yl)ethyl)benzamide], for which the half-inhibitory concentration (IC50) was determined as 11 nM.

In turn, `O=C(NCC(c1ccc(C(F)(F)F)nc1)N1CCOCC1)c1cccc(Cl)c1Cl` (stereo not shown) [2,3-dichloro-N-[2-morpholino-2-[6-(trifluoromethyl)-3-pyridy] [2,3-Dichloro-N-[2-morpholino-2-[6-(trifluoromethyl)-3-pyridyl]ethyl]benzamide] had an IC50 of 4.6 nM. Compared with the last compound, the IC50 is about 2.4-fold lower.

`Cn1cc(C(CNC(=O)c2c(Cl)cccc2Cl)N2CCC(F)(F)CC2)cn1` (single isomer, unassigned; (-)) [(−)2,6-dichloro-N-[2-(4,4-difluoro-1-piperidyl)-2-(1-methylp] [(−)2,6-dichloro-N-(2-(4,4-difluoropiperidin-1-yl)-2-(1-methyl-1H-pyrazol-4-yl)ethyl)benzamide] displayed a 50% inhibitory concentration (IC50) of 44 nM. This IC50 lies about 9.6-fold higher than the previous one.

With `COc1cccc(C(=O)NCC(c2ccc(Cl)cc2)N2CCOCC2)c1Cl` (single isomer, unassigned; (+)) [(+)2-chloro-N-[2-(4-chlorophenyl)-2-morpholino-ethyl]-3-meth] [(+)2-chloro-N-(2-(4-chlorophenyl)-2-morpholinoethyl)-3-methoxybenzamide], the IC50 worked out at 4.2 nM.

Turning to `Cc1ncc(C(CNC(=O)c2cccc(Cl)c2Cl)N2CCCCC2C(C)C)cn1` (stereo not shown) [2,3-dichloro-N-(2-(2-isopropylpiperidin-1-yl)-2-(2-methylpyrimidin-5-yl)ethyl)benzamide], the IC50 is 1900 nM.

The compound `Cc1ncc(C(CNC(=O)c2c(F)cccc2Cl)N2CCC(F)(F)CC2)cn1` (single isomer, unassigned; (-)) [(−)2-chloro-N-[2-(4,4-difluoro-1-piperidyl)-2-(2-methylpyrim] [(−)2-chloro-6-fluoro-N-(2-(4,4-difluoropiperidin-1-yl)-2-(2-methylpyrimidin-5-yl)ethyl)benzamide] registered a concentration for half-maximal inhibition (IC50) of 32 nM. This IC50 is about 59-fold lower than that of the compound before.

For `CS(=O)(=O)c1ccc(Cl)c(C(=O)NCC(c2ccc(Cl)cc2)N2CCOCC2)c1` (single isomer, unassigned; (-)) [(−)2-chloro-N-[2-(4-chlorophenyl)-2-morpholino-ethyl]-5-meth] [(−)2-chloro-N-(2-(4-chlorophenyl)-2-morpholinoethyl)-5-(methylsulfonyl)benzamide], the IC50 was determined as 65 nM.

The compound `COc1cccc(C(=O)NCC(c2cnc(C(F)(F)F)nc2)N2CCC(F)(F)CC2)c1Cl` (single isomer, unassigned; (+)) [(+)2-chloro-N-[2-(4,4-difluoro-1-piperidyl)-2-[2-(trifluorom] [(+)2-chloro-N-(2-(4,4-difluoropiperidin-1-yl)-2-(2-(trifluoromethyl)pyrimidin-5-yl)ethyl)-3-methoxybenzamide] had an IC50 of 3.6 nM.
